Test results as given in US20050228038A1, “11-Beta hydroxysteroid dehydrogenase type 1 inhibitors as anti-obesity/anti-diabetes compounds and 17-beta hydrosteroid dehydrogenase type I inhibitors as useful agents for the treatment of cancers, especially breast cancer” (priority 2004, published 2005).

Biological target: T1, 17betaHSD1 (Homo sapiens, UniProt P14061)
T1 sequence (P14061 1-328): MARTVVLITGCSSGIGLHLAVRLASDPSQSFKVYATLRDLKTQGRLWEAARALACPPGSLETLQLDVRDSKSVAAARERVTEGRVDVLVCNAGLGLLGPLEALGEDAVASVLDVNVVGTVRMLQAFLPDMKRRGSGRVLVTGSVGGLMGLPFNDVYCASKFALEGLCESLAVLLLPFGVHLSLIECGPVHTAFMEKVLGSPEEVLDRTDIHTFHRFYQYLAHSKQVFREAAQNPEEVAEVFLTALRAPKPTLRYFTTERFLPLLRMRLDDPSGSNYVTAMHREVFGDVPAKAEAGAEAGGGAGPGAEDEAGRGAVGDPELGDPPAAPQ
Test: screen of gossypol related compounds against 17betaHSD1 (enzyme activity)
Format: biochemical
Conditions: for Ki: read-out: inhibition constant
Protocol: Seven gossypol related compounds were screened against 17betaHSD1. […] Four gossypol derivatives, in which the aldehyde functional group is modified, were tested. The peri-acylated nitrites, gossylic nitrile diacetate and gossylic nitrile divalerate, represent compounds in which the aldehyde group is [drawing 13] converted to a nitrile, and the peri hydroxyl of gossypol is derivatized.
Gossylic iminolactone and gossylic lactone were the most promising compounds, producing 80-90% reduction in enzyme activity. The inhibition constants for gossylic lactone and gossylic iminolactone were determined to be 2.2 and 4.3 uM respectively.

Ki [µM] | Structure (SMILES) | further results
4.3 | Cc1cc2c(C(C)C)c(O)c(O)c3c2c(c1-c1c(C)cc2c(C(C)C)c(O)c(O)c4c2c1OC4=N)OC3=N [Gossylic iminolactone, gossylic iminolactone] | 
 | CC(=O)Oc1c(-c2c(C)cc3c(C(C)C)c(O)c(O)c(C#N)c3c2OC(C)=O)c(C)cc2c(C(C)C)c(O)c(O)c(C#N)c12 [Gossylic nitrile diacetate, gossylic nitrile diacetate] | reduction in enzyme activity (concentrations not given): 13%
2.2 | Cc1cc2c(C(C)C)c(O)c(O)c3c2c(c1-c1c(C)cc2c(C(C)C)c(O)c(O)c4c2c1OC4=O)OC3=O [gossylic lactone] | 
 | CCCCC(=O)Oc1c(-c2c(C)cc3c(C(C)C)c(O)c(O)c(C#N)c3c2OC(=O)CCCC)c(C)cc2c(C(C)C)c(O)c(O)c(C#N)c12 [gossylic nitrile divalerate] | reduction in enzyme activity (in words) (concentrations not given): no reduction
